In ChEMBL document CHEMBL1128900, “Non-peptidic inhibitors of neutral endopeptidase 24.11 1. Discovery and optimization of potency” (Bioorg Med Chem Lett, 1995):

molecular target: T1, Neprilysin (Rattus norvegicus, UniProt P07861); assay: In vitro inhibitory activity against neutral endopeptidase (NEP)
T1 sequence (P07861 whole entry): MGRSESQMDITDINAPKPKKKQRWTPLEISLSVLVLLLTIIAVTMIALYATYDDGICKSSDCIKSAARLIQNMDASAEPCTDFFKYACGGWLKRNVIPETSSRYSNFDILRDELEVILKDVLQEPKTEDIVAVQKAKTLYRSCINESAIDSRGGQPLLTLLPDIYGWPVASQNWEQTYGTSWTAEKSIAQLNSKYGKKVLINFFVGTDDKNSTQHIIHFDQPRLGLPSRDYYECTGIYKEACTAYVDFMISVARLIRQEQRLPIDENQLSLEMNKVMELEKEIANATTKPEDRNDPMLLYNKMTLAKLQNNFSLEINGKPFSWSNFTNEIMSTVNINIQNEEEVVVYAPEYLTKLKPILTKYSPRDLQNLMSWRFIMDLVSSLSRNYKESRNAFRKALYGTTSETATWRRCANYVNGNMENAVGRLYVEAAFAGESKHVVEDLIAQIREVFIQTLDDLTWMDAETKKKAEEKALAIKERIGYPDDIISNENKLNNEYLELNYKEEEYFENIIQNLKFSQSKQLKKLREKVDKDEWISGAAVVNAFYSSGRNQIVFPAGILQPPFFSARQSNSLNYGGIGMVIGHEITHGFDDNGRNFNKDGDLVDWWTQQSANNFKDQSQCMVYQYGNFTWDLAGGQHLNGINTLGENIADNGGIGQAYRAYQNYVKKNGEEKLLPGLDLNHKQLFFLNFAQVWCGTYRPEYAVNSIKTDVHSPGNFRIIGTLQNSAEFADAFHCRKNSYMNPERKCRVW

Row | IC50 [nM] | SMILES
1 | > 1000 | O=C(O)C(Cc1ccccc1-c1ccccc1)NCP(=O)(O)O (configuration not stated)
2 | > 1000 | O=C(O)C(Cc1cccc(-c2ccccc2)c1)NCP(=O)(O)O (configuration not stated)
3 | 1.5 | COc1cc(C[C@H](NCP(=O)(O)O)c2nnn[nH]2)ccc1-c1ccccc1
4 | 15 | O=C(O)C[C@H](Cc1ccc(-c2ccccc2)cc1)NCP(=O)(O)O
5 | 1.4 | O=C(Nc1nn[nH]n1)[C@H](Cc1ccc(-c2ccccc2)cc1)NCP(=O)(O)O
6 | 643 | O=C(O)CC[C@H](Cc1ccc(-c2ccccc2)cc1)NCP(=O)(O)O
7 | > 1000 | O=C(O)[C@H](Cc1ccc(-c2cccnc2)cc1)NCP(=O)(O)O
8 | > 10000 | O=P(O)(O)CN[C@@H](CCc1ccccc1)c1nnn[nH]1
9 | 364 | O=P(O)(O)CN[C@@H](Cc1ccc2ccccc2c1)c1nnn[nH]1
10 | 14 | COc1cc(C[C@H](NCP(=O)(O)O)C(=O)O)ccc1-c1ccccc1
11 | > 1000 | O=C(O)[C@H](Cc1ccccc1)NCP(=O)(O)O
12 | > 1000 | O=P(O)(O)CNC(c1nnn[nH]1)C(c1ccccc1)c1ccccc1 (configuration not stated)
13 | 15 | CC(C)Oc1ccc(C[C@H](NCP(=O)(O)O)c2nnn[nH]2)cc1
14 | 530 | CN(CP(=O)(O)O)[C@@H](Cc1ccc(-c2ccccc2)cc1)c1nnn[nH]1
15 | 236 | Cc1ccc(-c2ccc(C[C@H](NCP(=O)(O)O)C(=O)O)cc2)cc1
16 | 308 | O=C(NCc1ccccc1)[C@H](Cc1ccc(-c2ccccc2)cc1)NCP(=O)(O)O
17 | > 10000 | O=C(O)[C@H](Cc1ccc(-c2ccccc2)cc1)NCCP(=O)(O)O
18 | 1300 | NC(=O)[C@H](Cc1ccc(-c2ccccc2)cc1)NCP(=O)(O)O
19 | > 1000 | O=P(O)(O)CN[C@@H](Cc1ccc(-c2ccccc2)cc1)c1nnnn1Cc1ccccc1
20 | 32 | O=C(O)/C=C/[C@H](Cc1ccc(-c2ccccc2)cc1)NCP(=O)(O)O
21 | 1900 | O=C(O)CCNC(=O)[C@H](Cc1ccc(-c2ccccc2)cc1)NCP(=O)(O)O

Row | SMILES | IC50 [nM]
22 | O=P(O)(O)CN[C@@H](Cc1ccccc1)c1nnn[nH]1 | 26
